# Laboratory results from paper PMC4859512, “Polyamino-Isoprenic Derivatives Block Intrinsic Resistance of P. aeruginosa to Doxycycline and Chloramphenicol In Vitro” (PLoS ONE, 2016).
# Residues, ends and D or L forms follow the SMILES beside them. *: point of attachment. βNA = c1ccc2cc(N*)ccc2c1
# What was measured:
# [1] = test system: P. aeruginosa PA01 (wt); assay: Antibiotic susceptibility testing (broth micro-dilution MIC), strain PA01; assay type: cell-based, Pseudomonas aeruginosa; details: PA01
# Experimental: (§1) Experiments were performed on the BAC-SCREEN platform of the UMR-MD1, with a Freedom EVO 150 liquid handling system (Tecan, Lyon, France).
# (§2) The same experiment was performed using chloramphenicol (4 mg/L) in combination with 3 (10 μM final concentration). […] These experiments were performed to study the effect of our compounds on the natural resistance of P. aeruginosa. […] Experiments were performed with the ß-lactams ceftazidime and ticarcillin and ciprofloxacin and amikacin.
# [2] = test system: P. aeruginosa PA01; assay: Comparison of efficiency between compounds and PAßN (compound gradient with 2 mg/L doxycycline); assay type: cell-based, Pseudomonas aeruginosa; details: PA01, doxycycline 2 mg/L, 18 h
# Experimental: Serial dilutions of each compound (from 270 μM to 0.95 μM for PAßN and from 135 μM to 0.06 μM for 3) were prepared in microplates. Doxycycline (2 mg/L) was then added to each well before inoculation of bacteria (5x10^5 cfu/mL). Optical density (600 nm) was measured after 18 hours at 37°C. Only the relevant part of the graphs are shown. Experiments were performed in triplicate.
# First, we performed a checkerboard assay to analyze the synergy between doxycycline and the polyamino-isoprenic compound and between doxycycline and PAβN. For both, compound 3 and PAβN we observed a synergistic inhibition of growth when combined with doxycycline with a FIC Index of 0.09 (S2 Table). […] PAßN is generally used at a concentration greater than 10 μM to inhibit the resistance of P. aeruginosa with respect to various antibiotics, and, to our knowledge, no data have been reported in the literature on its use in combination with doxycycline. The percentage of growth inhibition was monitored as a function of compound concentration, and the results are presented in Fig 3.
# [3] = test system: P. aeruginosa CMZ091 (Mex XY overproducer); assay: Antibiotic susceptibility testing (broth micro-dilution MIC), strain CMZ091; assay type: cell-based, Pseudomonas aeruginosa; details: CMZ091
# Experimental: as §1
# (§3) We concluded that compound 3 was the best compound and suitable for a more detailed study. The same experiment was performed using chloramphenicol (4 mg/L) in combination with 3 (10 μM final concentration). Amongst the 20 clinical isolates, the growth of 15 (75%) was impaired, while 5 (25%) were resistant (data not shown). These experiments were performed to study the effect of our compounds on the natural resistance of P. aeruginosa. In addition, we were wondering if compound 3 could also increase susceptibility to other antibiotic families including ß-Lactams, fluoroquinolones and aminoglycosides, that are representative of the main classes of anti-pseudomonal agents. Experiments were performed with the ß-lactams ceftazidime and ticarcillin and ciprofloxacin and amikacin. […] . […] To better characterize compound 3, we first searched for the minimum concentration of compound that allowed killing of bacteria by doxycycline, and PAßN was used as the reference molecule.
# [4] = test system: P. aeruginosa PT629 (Mex AB overproducer); assay: Antibiotic susceptibility testing (broth micro-dilution MIC), strain PT629; assay type: cell-based, Pseudomonas aeruginosa; details: PT629
# Experimental: as §1, §3
# [5] = test system: P. aeruginosa PA01; assay: Checkerboard assay with doxycycline; assay type: cell-based, Pseudomonas aeruginosa; details: PA01
# Experimental: Serial two-fold dilutions of antimicrobial agents were mixed together in a microtiter plate. The range of concentration of each drug was twice the MIC, down to the eleventh serial two-fold dilutions below this amount. Doxycycline was serially diluted along the X-axis, and the polyamino-isoprenic compound or PAßN was diluted along the Y-axis as indicated. Each well was inoculated with a bacterial inoculum of 5 x 10^5 CFU/ml, and the plates were incubated at 37°C for 18 h under aerobic conditions. Each plate also contained a row and a column in which a serial dilution of polyamino-isoprenic compound or doxycycline, respectively, was present alone to determine the MIC. The FIC index was calculated as follows: FIC index = FIC A + FIC B, where FIC A is the MIC of drug A in the combination/MIC of drug A alone and FIC B is the MIC of drug B in the combination/MIC of drug B alone. The combination was considered synergistic when the FIC index is ≤0.5, and antagonistic when the FIC index is > 4 [26].
# [6] = test system: P. aeruginosa PA0-7H (Mex EF overproducer); assay: Antibiotic susceptibility testing (broth micro-dilution MIC), strain PA0-7H; assay type: cell-based, Pseudomonas aeruginosa; details: PA0-7H
# Experimental: as §1, §3
# [7] = test system: P. aeruginosa PA01 ERY^R (Mex CD overproducer); assay: microbe, parasite or virus in culture; assay type: cell-based, Pseudomonas aeruginosa; details: PA01 ERY R
# Experimental: as §1, §2
# [8] = test system: human fibroblasts; assay: WST-1 cytotoxicity test, fibroblasts; assay type: cell-based; details: Homo sapiens, Fibroblast; WST1, 24 h; mean +/- SD, 2 independent experiments
# Experimental: (§4) CHO-K1 cells (ATCC-LGC Standards Sarl (Molsheim, France) and human fibroblasts (Clinisciences, Paris, France) were maintained in McCoy’s 5A and DMEM media, respectively, supplemented with 10% bovine calf serum, 2 mM glutamine, and 100 U/mL/10 μg/mL penicillin/streptomycin. They were incubated at 37°C in a humidified atmosphere containing 5% CO2. The cell lines were seeded in 96-well plates and incubated overnight. The cytotoxic effects of compounds were assessed by the colorimetric WST-1 cell proliferation assay as previously described. Briefly, a range of compound concentrations from 30 μM to 1200 μM was added to triplicate cultures, and cells were incubated at 37°C for 24 h. At the end of the incubation period, cultures were washed three times with phosphate buffer saline (PBS) and incubated in fresh culture medium containing 10% WST-1 for an additional 30 min. Cell viability was evaluated by measuring the WST-1 absorbance at 450 nm in a microplate spectrophotometer MRX1 II (Dynex technologies, Chantilly, VA, USA). The Inhibitory Concentration 50% (IC50) was chosen to evaluate the cytotoxicity of compounds. IC50 was defined as the concentration of a compound that induced a 50% decrease in viable cells. Doxorubicin was used as a positive control.
# [9] = test system: CHO-K1 cells; assay: cells; assay type: cell-based, Chinese Hamster; details: Cricetulus griseus, CHO-K1; WST1, 24 h; mean +/- SD, 2 independent experiments
# Experimental: as §4
# [10] = doxycycline MIC in the combination 0.125 µg/ml
# [11] = doxycycline MIC in the combination 0.25 µg/ml
# [12] = doxycycline MIC in the combination 0.5 µg/ml
# [13] = doxycycline MIC in the combination 1 µg/ml
# [14] = doxycycline MIC in the combination 2 µg/ml
# [15] = doxycycline MIC in the combination 4 µg/ml
# [16] = doxycycline MIC in the combination 8 µg/ml
# [17] = doxycycline MIC in the combination 16 µg/ml
compound,measurement,setting,value
"NC(N)=NCCC[C@H](NC(=O)[C@@H](N)Cc1ccccc1)C(=O)Nc1ccc2ccccc2c1 [PAßN, Phenylalanine-Arginine Beta-Naphthylamide, reference compound] (H-Phe-Arg-βNA)",MIC of Amikacin in the presence of the compound,[1]; compound 10µM,16 mg/L
same,MIC of Ceftazidime in the presence of the compound,[1]; compound 10µM,2 mg/L
same,MIC of Ciprofloxacin in the presence of the compound,[1]; compound 10µM,0.125 mg/L
same,MIC of Ticarcillin in the presence of the compound,[1]; compound 10µM,32 mg/L
same,MIC of Amikacin in the presence of the compound,[1]; compound 30µM,16 mg/L
same,MIC of Ceftazidime in the presence of the compound,[1]; compound 30µM,1 mg/L
same,MIC of Ciprofloxacin in the presence of the compound,[1]; compound 30µM,≤ 0.06 mg/L
same,MIC of Ticarcillin in the presence of the compound,[1]; compound 30µM,32 mg/L
same,concentration needed to inhibit growth in the presence of doxycycline,[2],≥ 15.6 mg/L
same,concentration needed to inhibit growth in the presence of doxycycline,[2]; graphically determined on Fig 3,≥ 30 µM
same,MIC of Amikacin in the presence of the compound,[3]; compound 10µM,64 mg/L
same,MIC of Ceftazidime in the presence of the compound,[3]; compound 10µM,2 mg/L
same,MIC of Ciprofloxacin in the presence of the compound,[3]; compound 10µM,0.5 mg/L
same,MIC of Ticarcillin in the presence of the compound,[3]; compound 10µM,16 to 32 mg/L
same,MIC of Amikacin in the presence of the compound,[3]; compound 30µM,32 to 64 mg/L
same,MIC of Ceftazidime in the presence of the compound,[3]; compound 30µM,2 mg/L
same,MIC of Ciprofloxacin in the presence of the compound,[3]; compound 30µM,0.25 mg/L
same,MIC of Ticarcillin in the presence of the compound,[3]; compound 30µM,16 to 32 mg/L
same,MIC of Amikacin in the presence of the compound,[4]; compound 10µM,4 mg/L
same,MIC of Ceftazidime in the presence of the compound,[4]; compound 10µM,8 mg/L
same,MIC of Ciprofloxacin in the presence of the compound,[4]; compound 10µM,0.5 mg/L
same,MIC of Ticarcillin in the presence of the compound,[4]; compound 10µM,> 64 mg/L
same,MIC of Amikacin in the presence of the compound,[4]; compound 30µM,4 to 8 mg/L
same,MIC of Ceftazidime in the presence of the compound,[4]; compound 30µM,2 to 4 mg/L
same,MIC of Ciprofloxacin in the presence of the compound,[4]; compound 30µM,0.5 mg/L
same,MIC of Ticarcillin in the presence of the compound,[4]; compound 30µM,> 64 mg/L
same,Concentration of compound associated,[5]; [10],128 µM
same,Effect,[5]; [10],Synergistic (synergistic when the FIC index is ≤0.5)
same,FIC index,[5]; [10],0.13
same,Concentration of compound associated,[5]; [11],32 µM
same,Effect,[5]; [11],Synergistic (synergistic when the FIC index is ≤0.5)
same,FIC index,[5]; [11],0.04
same,Concentration of compound associated,[5]; [12],32 µM
same,Effect,[5]; [12],Synergistic (synergistic when the FIC index is ≤0.5)
same,FIC index,[5]; [12],0.05
same,Concentration of compound associated,[5]; [13],32 µM
same,Effect,[5]; [13],Synergistic (synergistic when the FIC index is ≤0.5)
same,FIC index,[5]; [13],0.06
same,Concentration of compound associated,[5]; [14],32 µM
same,Effect,[5]; [14],Synergistic (synergistic when the FIC index is ≤0.5)
same,FIC index,[5]; [14],0.09
same,Concentration of compound associated,[5]; [15],8 µM
same,Effect,[5]; [15],Synergistic (synergistic when the FIC index is ≤0.5)
same,FIC index,[5]; [15],0.13
same,Concentration of compound associated,[5]; [16],4 µM
same,Effect,[5]; [16],Synergistic (synergistic when the FIC index is ≤0.5)
same,Concentration of compound associated,[5]; [17],2 µM
same,Effect,[5]; [17],Synergistic (synergistic when the FIC index is ≤0.5)
same,FIC index,[5]; [17],0.5
same,FIC index,[5]; combination with doxycycline,0.09
same,MIC of Amikacin in the presence of the compound,[6]; compound 10µM,4 mg/L
same,MIC of Ceftazidime in the presence of the compound,[6]; compound 10µM,1 mg/L
same,MIC of Ciprofloxacin in the presence of the compound,[6]; compound 10µM,4 mg/L
same,MIC of Ticarcillin in the presence of the compound,[6]; compound 10µM,8 mg/L
same,MIC of Amikacin in the presence of the compound,[6]; compound 30µM,4 mg/L
same,MIC of Ceftazidime in the presence of the compound,[6]; compound 30µM,1 mg/L
same,MIC of Ciprofloxacin in the presence of the compound,[6]; compound 30µM,4 mg/L
same,MIC of Ticarcillin in the presence of the compound,[6]; compound 30µM,8 mg/L
same,MIC of Amikacin in the presence of the compound,[7]; compound 10µM,2 mg/L
same,MIC of Ceftazidime in the presence of the compound,[7]; compound 10µM,2 mg/L
same,MIC of Ciprofloxacin in the presence of the compound,[7]; compound 10µM,0.125 mg/L
same,MIC of Ticarcillin in the presence of the compound,[7]; compound 10µM,32 mg/L
same,MIC of Amikacin in the presence of the compound,[7]; compound 30µM,2 mg/L
same,MIC of Ceftazidime in the presence of the compound,[7]; compound 30µM,2 mg/L
same,MIC of Ciprofloxacin in the presence of the compound,[7]; compound 30µM,≤ 0.06 mg/L
same,MIC of Ticarcillin in the presence of the compound,[7]; compound 30µM,32 mg/L
"COc1cccc2c1C(=O)c1c(O)c3c(c(O)c1C2=O)C[C@@](O)(C(=O)CO)C[C@@H]3O[C@H]1C[C@H](N)[C@H](O)[C@H](C)O1 [Doxorubicin, reference compound]",IC50,[8],12.4 ± 2.1 µM
same,IC50,[9],48.3 ± 6.8 µM
